In patent US20070197562A1, “Remedies for prostatic hypertrophy” (Yokohama TLO Company, Ltd., priority 2004, published 2007):

What was measured:
[1] = tested on: MAPK phosphorylation in PrSC cells; test: MAPK phosphorylation in PrSC cells (Western blotting); format: cell-based, human
Description: Stromal cells (PrSC) were cultured for 24 hours in a phenol red-free F12 medium containing 0.1% (W/V) BSA, to which angiotensin II (10 μM) or TNFα (1 ng/mL) was added each alone or in combination with either CV (10 μM) or losartan (“Los”; 10 μM) by replacing the medium. The cells were collected 10 minutes after the addition, and the total cellular proteins were extracted in the same manner as described in Example 10. Similarly, the cells cultured with no additive and the cells added with either CV or Los alone were processed in parallel. 3,000,000 PrSC cells were used for each sample.
These samples were subjected to Western blotting in the same manner as described in Example 10.

[2] = tested on: MAPK phosphorylation in PC-3 cells; test: MAPK phosphorylation in PC-3 cells cultured in PrSC conditioned media (Western blotting); format: cell-based, human; details: 10% FCS-CM from PrSC with AIIR blocker 10 μM, no angiotensin II; lanes 5 and 6 vs lane 4; 10 minutes
Description: Stromal cells (PrSC) were cultured in a phenol red-free F12 medium containing 0.1% (W/V) BSA, to which angiotensin II (10 μM) was added alone or in combination with losartan (“Los”; 10 μM). The culture medium was collected 24 hours after the addition, and used as a conditioned medium (“0.1% BSA-CM”).
Stromal cells (PrSC) were cultured in a phenol red-free F12 medium containing 10% (V/V) FCS, to which CV (10 μM) or losartan (10 μM) was added. The culture medium was collected 24 hours after the addition, and used as a conditioned medium (“10% FCS-CM”) with no addition of angiotensin II. 10% FCS-CM with no additive was also prepared in the same manner.
3,000,000 PrSC cells were used for each of the above 10-1 and 10-2
PC3 cells (prostate cancer cells) were cultured for 24 hours in a phenol red-free F12 medium supplemented with 0.1% (W/V) BSA. Then the medium was replaced with one of the conditioned media prepared as described above, and the cells were collected 10 minutes later. Total cellular proteins were extracted as described below. Similar protocol was done in parallel for PC-3 cells without using any conditioned medium (“Control”).
The cells were washed twice with an ice-cold phosphate buffer (PBS), and lysed in 200 μL of an ice-cold cell lysis solution (lysis buffer; 20 mM of Tris (pH8.0), 137 mM of NaCl, 10% of glycerol, 0.1% of SDS, 0.5% of Nonidet P-40 (trade name), 100 mM of sodium fluoride, […] of sodium orthovanadate, 1 mM of EGTA, 2 mM of phenylmethylsulfonyl fluoride, […] of leupeptin, and […] of aprotinin). The mixture was centrifuged. Subsequently, the supernatant was collected.
The resulting protein sample was subjected to SDS-PAGE in the routine manner, and the MAPK phosphorylation was determined by Western blotting using an anti-phospho-MAP kinase antibody or an anti-MAP kinase antibody) (both were purchased from Cell Signaling Technology (Beverly, Mass.)) as the detecting antibody.
From the obtained results, the expression levels of pMAPK and MAPK bands were determined using NIH image software. On the basis of the results, the pMAPK/MAPK ratio in each lane was calculated, and then the ratio (“pMAPK ratio”) of the obtained value of each lane to that of the lane 1 (“Control”) was calculated by taking the value of Control as 1.

Compound: CCOc1nc2cccc(C(=O)OC(C)OC(=O)OC3CCCCC3)c2n1Cc1ccc(-c2ccccc2-c2nnn[nH]2)cc1 (stereo not shown) [CV, 1-(cyclohexyloxycarbonyloxy)ethyl 2-ethoxy-1-[[2′-(1H-tetrazole-5-yl)biphenyl-4-yl]methyl]-1H-benzimidazole-7-carboxylate]
- MAPK phosphorylation in PrSC cells ([1]; AIIR blocker 10 μM added alone, lanes 8 and 9): not caused
- MAPK phosphorylation in PrSC cells ([1]; TNFα (1 ng/mL) in combination with AIIR blocker 10 μM, lanes 6 and 7, 10 minutes): suppressed
- MAPK phosphorylation in PrSC cells ([1]; angiotensin II (10 μM) in combination with AIIR blocker 10 μM, lanes 3 and 4, 10 minutes): suppressed
- MAPK phosphorylation in PC-3 cells [2]: suppressed
